The values that follow come from patent US20170260169A1, “INHIBITORS FOR STEROID RESPONSE ELEMENTS AND RNA POLYMERASE II AND RELATED METHODS” (priority 2007, published 2017).

For series [1], the system named is FKBP5 mRNA expression in LNCaP cells. As to the kind of experiment: DHT-induced FKBP5 mRNA in LNCaP cells. The series is classed as cell-based.
Series [2] concerns transcripts in DHT-stimulated LNCaP cells. Description: Gene expression with Affymetrix Human Genome U133 Plus 2.0 arrays, DHT-stimulated LNCaP cells. In kind it is cell-based. The procedure:
LNCaP cells were plated in 12-well plates at a density of 80-100×10^3 cells per well. Media, polyamide treatments, and time courses were the same as described above. Bicalutamide was added 2 h before DHT stimulation. RNA was isolated as described in ref. 21. From this point, experiments were carried out at the Millard and Muriel Jacobs Gene Expression Facility at the California Institute of Technology. Labeled mRNA was hybridized to Affymetrix high-density Human Genome U133 Plus 2.0 arrays according to established protocols. Gene expression was analyzed by using Resolver (Rosetta Biosoftware, Seattle, Wash.). Data were uploaded to the Gene Expression Omnibus repository (accession no. GSE7708).
Global effects of polyamides 1 and 2 and bicalutamide on gene expression in DHT-stimulated LNCaP cells were monitored with Affymetrix (Santa Clara, Calif.) high-density Human Genome U133 Plus 2.0 arrays, which interrogate >50,000 transcripts.

In series [3] the test system is AR occupancy at the FKBP5 intronic enhancer. Description: Chromatin immunoprecipitation with anti-AR, FKBP5 fifth intron enhancer. The series is classed as cell-based. Particulars: 10 μM.
Series [4] concerns PSA mRNA expression in LNCaP cells. As to the kind of experiment: DHT-induced PSA mRNA in LNCaP cells, quantitative real-time RT-PCR. The series is classed as cell-based. For orientation: Real-time PCR tracks product formation cycle by cycle.
Procedure: LNCaP cells (ATCC) were plated in 24-well plates at a density of 40-50×10^3 cells per well (80-100×10^3 cells per ml) in RPMI medium 1640 (ATCC) supplemented with 10% FBS (Irvine Scientific, Santa Ana, Calif.). After 72 h, the medium was replaced with RPMI medium 1640 containing 10% charcoal stripped FBS with or without polyamides at the designated concentrations. Cells were grown for an additional 48 h and then treated with 1 nM DHT for 16 h. When appropriate, bicalutamide was added 2 h before DHT stimulation. Isolation of RNA and cDNA synthesis was performed as described (21). Quantitative real-time RT-PCR was performed with SYBR Green PCR Master Mix (Applied Biosystems, Foster City, Calif.) on an ABI 7300 instrument. PSA mRNA was measured relative to β-glucuronidase as an endogenous control.
Series [5] deals with binding of LNCaP nuclear extract factors to the ARE site in the PSA promoter. As to the kind of experiment: Electrophoretic mobility shift assay with DHT-stimulated LNCaP nuclear extract. In kind it is biochemical. Particulars: same concentrations. The procedure: containing the PSA promoter ARE (underlined) was end-labeled with ^32P and annealed to its complement. Polyamides 1 and 2 were incubated with the duplex for 3 h in previously optimized buffer conditions (45). Nuclear extract from DHT-treated LNCaP cells (Genetex, San Antonio, Tex.) was then added for an additional 45 min. Complexes were run on a 5% polyacrylamide gel and visualized on a phosphorimager.
The effects of polyamides 1 and 2 on the binding of factors present in the nuclear extract isolated from DHT-stimulated LNCaP cells to the ARE site in the PSA promoter was measured by an electrophoretic mobility shift assay (FIG. 8D).
A general note: Mobility shift assays separate free from complexed probe on a gel.

The subject of series [6] is AR occupancy at the PSA promoter and enhancer. As to the kind of experiment: Chromatin immunoprecipitation with anti-AR, PSA promoter and enhancer. The series is classed as cell-based. The procedure:
LNCaP cells were plated in 15-cm diameter plates at a density of 2×10^6 cells per plate. Media, polyamide treatment, time course, and DHT stimulation were the same as described above. After the 16-h DHT treatment, cells were treated with 1% formaldehyde for 10 min. Chromatin was isolated and sheared. Antibodies to AR (AR-20, Santa Cruz Biotechnology, Santa Cruz, Calif.) were used to immunoprecipitate AR-bound DNA fragments. Crosslinks were reversed, and PCRs using primers targeted to the regions of interest were used to assess enrichment of bound fragments as compared with mock-precipitated (no antibody) controls. PCRs were monitored with SYBR Green PCR Master Mix (Applied Biosystems) on an ABI 7300 instrument. Primer sequences and a more detailed experimental protocol are available upon request.

Series [7] concerns GILZ mRNA expression in A549 cells. As to the kind of experiment: Dexamethasone-induced GILZ mRNA in A549 cells, quantitative real-time RT-PCR. In kind it is cell-based.
For a further series, the system named is ARE of the PSA promoter. As to the kind of experiment: Quantitative DNase I footprint titration on pAR-PSA fragment. The series is classed as binding. An excerpt: Plasmid pAR-PSA was constructed by inserting a 70-bp sequence from the PSA promoter containing the ARE into pUC19 plasmid. […] Detailed experimental protocols are reported elsewhere (44). The proximal PSA promoter contains the ARE [NT] ID NO:15) (FIG. 8A). […] However, 1 is observed to bind the sequence [NT]≈12 bp 5' to the ARE, which is an expected binding site for this molecule.

Setting [8] is: 10 μM, + DHT, relative to DHT-induced controls, p ≦ 0.01.
[9] abbreviates: relative to DHT-induced controls, + DHT.

The structures appear in SMILES notation. Bounds are passed on as bounds.

In the case of `CN(CCCNC(=O)c1cccc(C(=O)O)c1)CCCNC(=O)c1cc(NC(=O)c2cc(NC(=O)c3nc(NC(=O)c4cc(NC(=O)[C@H](N)CCNC(=O)c5nc(NC(=O)c6cc(NC(=O)c7cc(NC(=O)c8nccn8C)cn7C)cn6C)cn5C)cn4C)cn3C)cn2C)cn1C` [Polyamide 2], the “effect on FKBP5 expression” value in series [1] is on record as “minimal effect”. In addition, in series [2] (setting [8]), the “Number of transcripts down-regulated (fold change ≦ −2.0)” value turned out to be 284, the “Number of transcripts down-regulated (fold change ≦ −4.0)” value worked out at 32, the “Number of transcripts up-regulated (fold change ≧ 2.0)” value was 95 and the “Number of transcripts up-regulated (fold change ≧ 4.0)” value came out at 11. Besides, in series [2] (10 μM, P≦0.01, vs DHT-induced controls), the “number of transcripts affected by at least 2-fold” value was found to be 379. Also, the “share of interrogated transcripts affected” value in series [2] (10 μM, at least 2-fold) is given as under 1%. Besides, in series [2] (P≦0.01), the “number of the 88 DHT-repressed transcripts derepressed at least 2-fold” value turned out to be 3 and the “number of the 199 DHT-induced transcripts inhibited at least 2-fold” value was determined as 20. Also, in series [2] (setting [9]), the “Fold-change of FKBP5” value was 1.5, the “Fold-change of KLK2” value is −1.1, the “Fold-change of KLK3 (PSA)” value is −1.4 and the “Fold-change of TMPRSS2” value is −1.4. The “occupancy of AR at the FKBP5 intronic enhancer” value in series [3] is on record as “no measurable effect”. In addition, in series [4], the “effect on DHT-induced PSA mRNA” value is “more modest effect”. Moreover, the “effects on cell growth” value in series [4] (LNCaP, over the course of the experiment) is given as “no obvious detrimental effects on cell growth”. In addition, the “effect on binding to the labeled duplex” value in series [5] was “minimal effect”. Moreover, the “occupancy of AR at the PSA promoter and enhancer” value in series [6] (1 μM as printed) is recorded as “minimal effect”. For the same compound, the “AR occupancy at the PSA promoter and enhancer” value in series [6] (10 μM, FIG. 9 legend) was “not”. For the same compound, in series [7], the “effect on GILZ mRNA induction” value is reported as “more modest effect”. In addition, the “binding in the footprinted region” value with ARE of the PSA promoter is recorded as “no measurable binding”. This compound also displayed a Ka in the series on ARE of the PSA promoter (ARE consensus half-site 5′-AGAACA-3′) of under 1e+07 M⁻¹.
